From patent publication US11242334B2, “Heterocyclic compounds as kinase inhibitors, compositions comprising the heterocyclic compound, and methods of use thereof” (JS INNOPHARM (SHANGHAI) LTD, priority 2017, dated 2022) come the findings set out here.

In general, pIC50 refers to the negative decadic logarithm of the IC50, by convention in mol/L.

The structures appear in SMILES notation. pIC50: −log10 of the molar value. Some results are limits rather than exact numbers.

The subject of one assay is Colo205 cell line. The experiment in a line: Colo205 cell proliferation assay (MTT assay, WST-8 readout). As to conditions: Homo sapiens; IC50 values of growth inhibition in Colo 205 cells; 72 hours. The class given is cell-based. The method, then: Compounds disclosed herein were tested for the inhibition of ERK2 by a Colo205 cell proliferation assay commonly known as MTT assay. In this assay, a complete media was prepared by adding 10% fetal bovine serum to RPMI-1640 medium (Life technology). Colon cancer cells (Colo205 cell line) were added to each of 88 wells of a 96 well plate at a seeding density of 5,000 cells/well/90 μL. The cells were allowed to attach to the plate by incubating at 37° C. for 24 hours. The compound was dissolved in DMSO (SIGMA). A solution of test compound was prepared in complete media by serial dilution to obtain the following concentrations: 500 μM, 150 μM, 50 μM, 15 μM, 5 μM, 1.5 μM, 0.5 μM, 0.15 μM and 0.05 μM. The test compound solution (10 μL) was added to each of 80 cell-containing wells. The final concentrations of the compound were following: 50 μM, 15 μM, 5 μM, 1.5 μM, 0.5 μM, 0.15 μM, 0.05 μM, 0.015 μM and 0.005 μM. The final concentration of DMSO is 0.5%. To the 8 remaining cell-containing wells, only complete media (containing 0.5% DMSO) was added to form a control group in order to measure maximal proliferation. To the remaining 8 empty wells, complete media was added to for a vehicle control group in order to measure background. The plates were incubated at 37° C. for 72 hours. 10 μL WST-8 solution (DOJINDO, Cell Counting KIT-8) was added to each well. The plates were further incubated at 37° C. for 2 hours, and then read for the absorbance using a microplate reader at 450 nm.
The IC50 values of growth inhibition in Colo 205 cells for Compounds disclosed are listed in Table 3, A′: ≤0.5 μM; B′: >0.5 μM and ≤1 μM; C′: >1.0 μM and ≤5 uM; D′: >5 μM.
(Tetrazolium dyes change colour on reduction, which living cells bring about.)
`CNc1n[nH]c2ccc(-c3ccn([C@H](CO)c4cc(F)cc(Br)c4)c(=O)c3)cc12` [Example 141, (S)-1-(1-(3-bromo-5-fluorophenyl)-2-hydroxyethyl)-4-(3-(methylamino)-1H-indazol-5-yl)pyridin-2(1H)-one] gave a pIC50 of 5.30 to 6.00.
Same read-out and setting: then `Cc1cc(-c2n[nH]c3ccc(-c4ccn(Cc5ccccc5)c(=O)c4)cc23)ccn1` [Example 60, 1-benzyl-4-(3-(2-methylpyridin-4-yl)-1H-indazol-5-yl)pyridin-2(1H)-one], with 6.00 to 6.30.
Same read-out and setting: then `Cc1cc(Cn2ccc(-c3ccc4[nH]nc(-c5ccnc(C)c5)c4c3)cc2=O)ccn1` [Example 127, 4-(3-(2-methylpyridin-4-yl)-1H-indazol-5-yl)-1-((2-methylpyridin-4-yl)methyl)pyridin-2(1H)-one], with 5.30 to 6.00; and `Cc1cc(-c2n[nH]c3ccc(-c4ccn(Cc5ccc(C(F)(F)F)nc5)c(=O)c4)cc23)ccn1` [Example 131, 4-(3-(2-methylpyridin-4-yl)-1H-indazol-5-yl)-1-((6-(trifluoromethyl)pyridin-3-yl)methyl)pyridin-2(1H)-one], with 5.30 to 6.00; and `O=c1cc(-c2ccc3[nH]nc(-c4ccnc(C(F)(F)F)c4)c3c2)ccn1Cc1ccnc(C(F)(F)F)c1` [Example 126, 4-(3-(2-(trifluoromethyl)pyridin-4-yl)-1H-indazol-5-yl)-1-((2-(trifluoromethyl)pyridin-4-yl)methyl)pyridin-2(1H)-one], with under 5.30.
Molecule `Cc1cc(-c2n[nH]c3ccc(-c4ccn(Cc5cc(C(F)(F)F)no5)c(=O)c4)cc23)ccn1` [Example 139, 4-(3-(2-methylpyridin-4-yl)-1H-indazol-5-yl)-1-((3-(trifluoromethyl)isoxazol-5-yl)methyl)pyridin-2(1H)-one] showed a pIC50 of 5.30 to 6.00.
Same read-out and setting: the result for `Cc1nc2ccc(-c3n[nH]c4ccc(-c5ccn([C@H](CO)c6cc(F)cc(Br)c6)c(=O)c5)cc34)cn2n1` [Example 130, (S)-1-(1-(3-bromo-5-fluorophenyl)-2-hydroxyethyl)-4-(3-(2-methyl-[1,2,4]triazolo[1,5-a]pyridin-6-yl)-1H-indazol-5-yl)pyridin-2(1H)-one] reads at least 6.30; that for `CCc1cc(-c2n[nH]c3ccc(-c4ccn(Cc5ccnc(C(F)(F)F)c5)c(=O)c4)cc23)ccn1` [Example 132, 4-(3-(2-ethylpyridin-4-yl)-1H-indazol-5-yl)-1-((2-(trifluoromethyl)pyridin-4-yl)methyl)pyridin-2(1H)-one], 5.30 to 6.00; that for `Cc1cc(-c2n[nH]c3ccc(-c4ccn(Cc5cccc(C(F)(F)F)n5)c(=O)c4)cc23)ccn1` [Example 137, 4-(3-(2-methylpyridin-4-yl)-1H-indazol-5-yl)-1-((6-(trifluoromethyl)pyridin-2-yl)methyl)pyridin-2(1H)-one], 6.00 to 6.30.
On the same count and under the same terms, then `O=c1cc(-c2ccc3[nH]nc(C4CCOC4)c3c2)ccn1[C@H](CO)c1cc(F)cc(Br)c1` (stereo partly drawn) [Example 150, 1-((S)-1-(3-bromo-5-fluorophenyl)-2-hydroxyethyl)-4-(3-(tetrahydrofuran-3-yl)-1H-indazol-5-yl)pyridin-2(1H)-one], with 5.30 to 6.00; and `O=c1cc(-c2ccc3[nH]nc(N4CCC(O)C4)c3c2)ccn1[C@H](CO)c1cc(F)cc(Br)c1` (stereo partly drawn) [Example 151, 1-((S)-1-(3-bromo-5-fluorophenyl)-2-hydroxyethyl)-4-(3-(3-hydroxypyrrolidin-1-yl)-1H-indazol-5-yl)pyridin-2(1H)-one], with 5.30 to 6.00; and `O=c1cc(-c2ccc3[nH]nc(-c4ccc(F)cn4)c3c2)ccn1[C@H](CO)c1cc(F)cc(Br)c1` [Example 125, (S)-1-(1-(3-bromo-5-fluorophenyl)-2-hydroxyethyl)-4-(3-(5-fluoropyridin-2-yl)-1H-indazol-5-yl)pyridin-2(1H)-one], with 6.00 to 6.30.
Same read-out and setting: the result for `Cc1cc(-c2n[nH]c3ccc(-c4ccn(Cc5cccnc5C(F)(F)F)c(=O)c4)cc23)ccn1` [Example 136, 4-(3-(2-methylpyridin-4-yl)-1H-indazol-5-yl)-1-((2-(trifluoromethyl)pyridin-3-yl)methyl)pyridin-2(1H)-one] reads 5.30 to 6.00; that for `Cc1nn(C)cc1-c1n[nH]c2ccc(-c3ccn([C@H](CO)c4cc(F)cc(Br)c4)c(=O)c3)cc12` [Example 138, (S)-1-(1-(3-bromo-5-fluorophenyl)-2-hydroxyethyl)-4-(3-(1,3-dimethyl-1H-pyrazol-4-yl)-1H-indazol-5-yl)pyridin-2(1H)-one], 6.00 to 6.30.
The molecule `O=c1cc(-c2ccc3[nH]nc(-c4ccc5ncnn5c4)c3c2)ccn1[C@H](CO)c1cc(F)cc(Br)c1` [Example 128, (S)-4-(3-([1,2,4]triazolo[1,5-a]pyridin-6-yl)-1H-indazol-5-yl)-1-(1-(3-bromo-5-fluorophenyl)-2-hydroxyethyl)pyridin-2(1H)-one] had a pIC50 of at least 6.30.
The same measure, in the same setting: the result for `Cc1cc(-c2n[nH]c3ccc(-c4ccn([C@H](C)c5ccnc(C(F)(F)F)c5)c(=O)c4)cc23)ccn1` (single isomer, unassigned) [Example 142B] reads at least 6.30.
Take `Cc1cc(-c2n[nH]c3ccc(-c4ccn(Cc5nc(C(F)(F)F)cs5)c(=O)c4)cc23)ccn1` [Example 135]: the pIC50 is 5.30 to 6.00.
Still for that read-out and setting: the result for `Cc1cc(-c2n[nH]c3ccc(-c4ccn([C@H](CO)c5ccnc(C(F)(F)F)c5)c(=O)c4)cc23)ccn1` [Example 134, (S)-1-(2-hydroxy-1-(2-(trifluoromethyl)pyridin-4-yl)ethyl)-4-(3-(2-methylpyridin-4-yl)-1H-indazol-5-yl)pyridin-2(1H)-one] reads 5.30 to 6.00.
Still for that read-out and setting: the result for `O=c1cc(-c2ccc3[nH]nc(-c4ccnc(C5CC5)c4)c3c2)ccn1Cc1ccnc(C(F)(F)F)c1` [Example 133, 4-(3-(2-cyclopropylpyridin-4-yl)-1H-indazol-5-yl)-1-((2-(trifluoromethyl)pyridin-4-yl)methyl)pyridin-2(1H)-one] reads 5.30 to 6.00; that for `O=c1cc(-c2ccc3[nH]nc(-c4ccc5nccn5c4)c3c2)ccn1[C@H](CO)c1cc(F)cc(Br)c1` [Example 129, (S)-1-(1-(3-bromo-5-fluorophenyl)-2-hydroxyethyl)-4-(3-(imidazo[1,2-a]pyridin-6-yl)-1H-indazol-5-yl)pyridin-2(1H)-one], at least 6.30; that for `Cc1cc(-c2n[nH]c3ccc(-c4ccn(CCN5CCOCC5)c(=O)c4)cc23)ccn1` [Example 54, 4-(3-(2-methylpyridin-4-yl)-1H-indazol-5-yl)-1-(2-morpholinoethyl)pyridin-2(1H)-one], under 5.30.

The assay is the same for the next values; noted with them: IC50 values of growth inhibition in Colo 205 cells; 72 hours.
`Cc1cc(-c2n[nH]c3ccc(-c4ccn([C@@H](C)c5ccnc(C(F)(F)F)c5)c(=O)c4)cc23)ccn1` [Example 142A, (S)-4-(3-(2-methylpyridin-4-yl)-1H-indazol-5-yl)-1-(1-(2-(trifluoromethyl)pyridin-4-v1)ethyl)pyridin-2(1H)-one] showed a negative-log IC50 (pIC50) of 5.30 to 6.00.

The target of a further assay is T1, human ERK2 (Homo sapiens, UniProt P28482).
T1 construct: recombinantly expressed as GST-tagged full-length protein purified from E. coli; GST; purchased Invitrogen PV3311; host or cells: E. coli
T1 sequence (P28482 whole entry): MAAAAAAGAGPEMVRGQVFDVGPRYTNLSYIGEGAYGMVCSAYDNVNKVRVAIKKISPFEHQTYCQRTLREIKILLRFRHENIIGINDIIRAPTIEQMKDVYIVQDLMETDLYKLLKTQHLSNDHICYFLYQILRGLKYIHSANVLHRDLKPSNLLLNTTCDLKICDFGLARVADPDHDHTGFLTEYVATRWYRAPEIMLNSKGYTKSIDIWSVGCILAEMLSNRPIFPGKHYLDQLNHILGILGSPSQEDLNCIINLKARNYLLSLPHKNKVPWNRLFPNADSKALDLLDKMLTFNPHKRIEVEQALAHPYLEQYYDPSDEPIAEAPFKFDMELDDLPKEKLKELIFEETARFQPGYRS
The experiment in a line: LanthaScreen TR-FRET enzymatic assay, ERK2. The following applies: IC50 values of ERK2 biochemical activity; 5 μM ATP, 400 nM ATF2-GFP substrate. How it is done:
Compounds were tested in a LanthaScreen™ time-resolved fluorescence energy transfer (TR-FRET) enzymatic assay from Invitrogen. The assay used human ERK2 (Mitogen Activated Kinase 1, Invitrogen, Cat. PV3311) recombinantly expressed as GST-tagged full-length protein purified from E. coli and activated in vitro with MAP2K1. The substrate was a recombinant truncated version (residues 19-96) of ATF2 fused with Green Fluorescent Protein (Invitrogen, Cat. PV4445). Test compounds were prepared and diluted in DMSO in 3-fold serial dilutions to 100× of the final testing concentrations. The compounds were then further diluted to 4× by the kinase reaction buffer (Invitrogen, Cat. PV3189). The enzymatic reaction for compound testing was performed in a white 384-well polypropylene plate (Packard, Cat. 6005214) with a total reaction volume of 10 μl containing 20 ng/ml ERK2, 400 nM substrate, and 5 μM ATP that is around its Km. The assay started with loading 2.5 μl of ERK2 diluted in kinase reaction buffer to wells, followed by addition of equal volume of 4× compounds for 15-min incubation at the room temperature for pre-treatment. The enzymatic reaction was initiated by addition of 5 μl of mixture of the substrate and ATP prepared in kinase reaction buffer. After one hour reaction, 10 μl mixture of EDTA (final 10 mM) and terbium-labeled anti-pATF2 (pThr71) antibody (final 2 nM) (Invitrogen, Cat. PV4451) prepared in TR-FRET antibody dilution buffer (Invitrogen, Cat. PV3574) was added to stop the enzymatic reaction and produce TR-FRET signals. After 30 minutes of incubation at room temperature, the plate was read in Tecan Infinite F200 Pro with the following settings: Excitation 340 nm (30)/Emission1 495 nm (10)/Emission2 520 nm (25). The TR-FRET values were dimensionless numbers that were calculated as the ratio of the acceptor ([…]) signal to the donor (Terbium) signal. Percent of control was calculated as the percentage of compound-treated vs 1% DMSO vehicle-treated. The dose-response curves were generated and the ICsos were calculated by nonlinear sigmoid curve fitting using GraphPad Prism.
The IC50 values of ERK2 biochemical activity for the examples disclosed herein are listed in Table 3, A: ≤10 nM; B: >10 nM and ≤50 nM; C: >50 nM and ≤100 nM; D.>100 nM.
Take `Cc1cc(-c2n[nH]c3ccc(-c4ccn(Cc5ccccc5)c(=O)c4)cc23)ccn1` [Example 60, 1-benzyl-4-(3-(2-methylpyridin-4-yl)-1H-indazol-5-yl)pyridin-2(1H)-one]: the pIC50 is over 8.00.
